Primed or numbered codes have the meaning given here. No end group written: not given here. *: point of attachment. Biotin = O=C1N[C@H]2[C@H](CS[C@H]2CCCCC(=O)*)N1; Biotin′ = not defined here
System: VEGF-D neutralizing monoclonal antibody mAb 4A5 (VDnmAb)
Assay: ELISA of biotinylated synthetic peptides on streptavidin plates for VDnmAb binding
Settings: 1st peptide library; 10 pmol peptide; VDnmAb 2 μg/ml; signal more than two-fold greater than background considered positive
Text: Peptides. A series of synthetic 15-mer peptides (peptides 1 to 35, SEQ ID NOs: 4 to 38 in FIG. 4B, which overlap each other by 12 amino acids) were synthesized (Mimotopes Pty Ltd, Melbourne, Australia). The peptides encompassed the VHD of human VEGF-D (SEQ ID NO: 3, FIG. 4A). Peptide 36 (SEQ ID NO: 39) represented an artificial sequence including a FLAG tag as a positive control for a commercial anti-FLAG mAb (M2; Sigma) that was used as control for non-specific binding to peptides 1 to 35 (SEQ ID NOs: 4 to 38). Biotin was included at the N-terminal of each peptide during synthesis, except that peptide 1 (SEQ ID NO: 4, representing the N-terminal of the VHD) has biotin at the C-terminal. The four-amino acid linker “SGSG” was introduced between the N-terminal of each peptide sequence and biotin to provide more flexibility to peptides after immobilization on streptavidin plates, except peptide 1 (SEQ ID NO: 4) that included the C-terminal linker “GSG”.
ELISA. Reacti-Bind streptavidin high-binding-capacity coated plates (Pierce) were coated with 10 pmol of each peptide in PBS, blocked with 5% milk in PBS-0.1% Tween 20, and incubated with 100 μl of VEGF-D neutralizing monoclonal antibody mAb 4A5 (referred to herein as VDnmAb) or M2 at 2 μg/ml for 1 h at room temperature. Bound mAb was detected with goat anti-mouse IgG coupled with HRP. ABTS was used as the substrate, and the absorbance was read at 405 nm in a multiwell plate reader.
In this 2nd peptide library, biotin was included at the N-terminal of each peptide, and the four-amino acid linker “SGSG” was introduced between each peptide sequence and the biotin residue to provide more flexibility to peptides after immobilization on streptavidin plates. ELISA-based analysis of the 2nd peptide library was carried out as for the 1st peptide library.
Peptide 67 (SEQ ID NO: 141, the same as peptide 36, SEQ ID NO: 39 from the 1st library) and peptide 68 (SEQ ID NO: 142), both containing the FLAG tag, were used as controls. In this 3rd peptide library, biotin was included at the N-terminal of each peptide except peptides 6, 12 and 14 (SEQ ID NOs: 80, 86 and 88) which have C-terminal biotin residues. To provide more flexibility to peptides after immobilization on streptavidin plates, an amino acid linker was introduced between biotin residues and the peptide sequence: “SGSG” for N-terminal biotin; “SGS” for C-terminal biotin. ELISA-based analysis of the 3rd peptide library was carried out as for the 1st peptide library, described in Example 1.

Row | Substance | VDnmAb binding to peptide (ELISA signal, absorbance at 405 nm)
1 | FRCGGCCNEESLICM (Biotin-SGSGFRCGGCCNEESLICM; cysteine pairing not given here) [peptide 18 (SEQ ID NO: 21), residues 140 to 154 of human VEGF-D, N-terminal biotin and SGSG linker] | positive
2 | VNVFRCGGCCNEESL (Biotin-SGSGVNVFRCGGCCNEESL; cysteine pairing not given here) [peptide 17 (SEQ ID NO: 20), residues 137 to 151 of human VEGF-D, N-terminal biotin and SGSG linker] | the strongest
3 | peptide 16 (SEQ ID NO: 19): 1st library 15-mer which lacks the three C-terminal residues of peptide 17, SEQ ID NO: 20 (SGSGPPCVNVFRCGGCCNE) | does not bind VDnmAb

Same assay, conditions: 2nd peptide library; 10 pmol peptide; VDnmAb 2 μg/ml; signal more than two-fold greater than background considered positive

Row | Substance | VDnmAb binding to peptide (ELISA signal, absorbance at 405 nm)
4 | 30 (SEQ ID NO: 69): from mouse VEGF-D, homologous to Peptide 31 (SEQ ID NO: 70): serine 150 to glycine, leucine 151 to valine (Biotin-SGSGVNVFRCGGCCNEEGV; cysteine pairing not given here) | complete loss of VDnmAb binding
5 | FRCGGCCNEESL (Biotin-SGSGFRCGGCCNEESL; cysteine pairing not given here) [peptide 15 (SEQ ID NO: 54), residues 140 to 151 of human VEGF-D, 2nd library, N-terminal biotin and SGSG linker] | positive
6 | NVFRCGGCCNEESL (Biotin-SGSGNVFRCGGCCNEESL; cysteine pairing not given here) [peptide 13 (SEQ ID NO: 52), residues 138 to 151 of human VEGF-D, N-terminal biotin and SGSG linker] | positive
7 | VFRCGGCCNEESL (Biotin-SGSGVFRCGGCCNEESL; cysteine pairing not given here) [peptide 14 (SEQ ID NO: 53), residues 139 to 151 of human VEGF-D, N-terminal biotin and SGSG linker] | the strongest
8 | VNVFRCGGCCNEESL (Biotin-SGSGVNVFRCGGCCNEESL; cysteine pairing not given here) [peptide 17 (SEQ ID NO: 20), residues 137 to 151 of human VEGF-D, N-terminal biotin and SGSG linker] | bound to VDnmAb
9 | VPLMRCGGCCNDEGL (Biotin-SGSGVPLMRCGGCCNDEGL; not fully specified; cysteine pairing not given here) [peptide 33 (SEQ ID NO: 72), residues 78 to 92 of VEGF-A, biotin and linker] | did not bind the antibody
10 | VSLLRCTGCCGDENL (Biotin-SGSGVSLLRCTGCCGDENL; not fully specified; cysteine pairing not given here) [peptide 35 (SEQ ID NO: 74), residues 78 to 92 of PlGF, biotin and linker] | did not bind the antibody
11 | VSVYRCGGCCNSEGL (Biotin-SGSGVSVYRCGGCCNSEGL; not fully specified; cysteine pairing not given here) [peptide 32 (SEQ ID NO: 71), residues 157 to 171 of human VEGF-C, biotin and linker] | did not bind the antibody
12 | VTVQRCGGCCPDDGL (Biotin-SGSGVTVQRCGGCCPDDGL; not fully specified; cysteine pairing not given here) [peptide 34 (SEQ ID NO: 73), residues 73 to 87 of VEGF-B, biotin and linker] | did not bind the antibody
13 | peptide 18 (SEQ ID NO: 57): peptide 14 (SEQ ID NO: 53) with deletion of the leucine residue corresponding to position 151 (SGSGVFRCGGCCNEES) | complete loss of VDnmAb binding
14 | peptide 22 (SEQ ID NO: 61): 2nd library: single mutation of cysteine in the binding region, C146S (SGSGVNVFRCGGCSNEESL) | very minor or no effect on VDnmAb binding

Same assay, conditions: 3rd peptide library; 10 pmol peptide; VDnmAb 2 μg/ml; signal more than two-fold over background considered positive

Row | Substance | VDnmAb binding to peptide (ELISA signal, absorbance at 405 nm)
15 | CGGCCNEESL (SGSGCGGCCNEESL) [peptide 15 (SEQ ID NO: 89)] | positive
16 | FRCGGCCNEESL [peptide 12 (SEQ ID NO: 86)] (FRCGGCCNEESLSGS-{Biotin′}; cysteine pairing not given here) | decreases in VDnmAb binding
17 | GGCCNEESL (SGSGGGCCNEESL) [peptide 16 (SEQ ID NO: 90)] | positive
18 | RCGGCCNEESL [peptide 13 (SEQ ID NO: 87)] (Biotin-SGSGRCGGCCNEESL; cysteine pairing not given here) | the strongest
19 | RCGGCCNEESL [peptide 14 (SEQ ID NO: 88)] (RCGGCCNEESLSGS-{Biotin′}; cysteine pairing not given here) | decreases in VDnmAb binding
20 | VFRCGGCCNEESL (VFRCGGCCNEESLSGS-{Biotin′}; cysteine pairing not given here) [peptide 6 (SEQ ID NO: 80)] | decreases in VDnmAb binding
21 | peptide 1 (SEQ ID NO: 75): 3rd library: variant of VFRCGGCCNEESL with mutation S150C (SGSGVFRCGGCCNEECL) | loss, even complete loss, of VDnmAb binding
22 | peptide 2 (SEQ ID NO: 76): 3rd library: variant of VFRCGGCCNEESL with mutation S150A (SGSGVFRCGGCCNEEAL) | reduced VDnmAb binding somewhat
23 | peptide 3 (SEQ ID NO: 77): 3rd library: variant of VFRCGGCCNEESL with mutation S150T (SGSGVFRCGGCCNEETL) | loss, even complete loss, of VDnmAb binding
24 | peptide 4 (SEQ ID NO: 78): 3rd library: variant with deletion of one of N147, E148, E149, S150 (SGSGVFRCGGCCNEEL) | loss of VDnmAb binding
25 | peptide 7 (SEQ ID NO: 81): 3rd library: mutation of residue 151 to valine (SGSGVFRCGGCCNEESV) | decreased VDnmAb binding
26 | peptide 8 (SEQ ID NO: 82): 3rd library: mutation of residue 151 to alanine (SGSGVFRCGGCCNEESA) | decreased VDnmAb binding
27 | peptide 9 (SEQ ID NO: 83): 3rd library: mutation V139L (SGSGLFRCGGCCNEESL) | little or no effect on VDnmAb binding
28 | peptide 10 (SEQ ID NO: 84): 3rd library: mutation V139A (SGSGAFRCGGCCNEESL) | little or no effect on VDnmAb binding
29 | peptide 17 (SEQ ID NO: 91): 3rd library: mutation F140Y (SGSGVYRCGGCCNEESL) | little or no effect on VDnmAb binding
30 | peptide 18 (SEQ ID NO: 92): 3rd library: mutation F140A (SGSGVARCGGCCNEESL) | little or no effect on VDnmAb binding
31 | peptide 19 (SEQ ID NO: 93): 3rd library: deletion of F140 (SGSGVRCGGCCNEESL) | little or no effect on VDnmAb binding
32 | peptide 20 (SEQ ID NO: 94): 3rd library: mutation R141K (SGSGVFKCGGCCNEESL) | more pronounced effect
33 | peptide 21 (SEQ ID NO: 95): 3rd library: mutation R141A (SGSGVFACGGCCNEESL) | little or no effect on VDnmAb binding

Same assay, conditions: 3rd peptide library; 10 pmol peptide; VDnmAb 2 μg/ml; signal more than two-fold over background considered positive; listed as peptide 5 (SEQ ID NO: 79)

Row | Substance | VDnmAb binding to peptide (ELISA signal, absorbance at 405 nm)
34 | VFRCGGCCNEESL (Biotin-SGSGVFRCGGCCNEESL; cysteine pairing not given here) [peptide 14 (SEQ ID NO: 53), residues 139 to 151 of human VEGF-D, N-terminal biotin and SGSG linker] | bound to VDnmAb

Source: patent publication US20110305703A1, “ISOLATED VEGF-C AND VEGF-D PEPTIDES AND USES THEREOF” (Vegenics Pty Limited, priority 2008, published 2011)
